{
  "source": "patent US20180110780A1",
  "about": "“AGENT FOR ALLEVIATING SIDE EFFECT OF ANTITUMOR DRUG” (TAIHO PHARMACEUTICAL CO., LTD., priority 2015, published 2018)",
  "tested_on": "BALB/cA Jcl-nu mice transplanted with human lung cancer cell line NCI-H441",
  "assay": "Toxicity alleviating effect against pemetrexed in tumor-bearing mouse",
  "conditions": "deaths/animals during the test, pemetrexed 50 mg/kg/day, Compound 1 600 mg/kg/day",
  "protocol": "Cells of a human lung cancer cell line, NCI-H441, were suspended in a PBS containing 50% [sequence], and the suspension was transplanted subcutaneously into the right-side chest of each of 8-week old BALB/cA Jcl-nu mice (Crea-Japan, Inc.) in an amount of 5×10^6 cells/0.1 mL/body. At the time when the average tumor volume after grouping became more than 100 mm^3, the major axis and the minor axis of the tumor were measured, and grouping was performed such that there would be no fluctuations in the tumor volumes of the various groups (6 animals per group). Furthermore, the mice were maintained under conditions of low-folic acid feed breeding from the age of 5 weeks to the day of test completion.\nPemetrexed (manufactured by LC Laboratories, Inc.) was dissolved in physiological saline, and the solution was administered through the caudal vein on Day 1, which was the day after the day of grouping, and on Day 8, which was one week thereafter. Furthermore, Compound 1 was suspended in a 0.5% aqueous solution of hydroxypropylmethyl cellulose, and the suspension was orally administered once a day for 14 consecutive days from the day after the day of grouping. […]\nAfter grouping, the body weights (BW) were measured twice a week, and the rate of bodyweight change (bodyweight change; BWC) was calculated by the following formula, the toxicity alleviating effect was evaluated. […]",
  "data": [
    {"smiles": "Nc1nc2[nH]cc(CCc3ccc(C(=O)N[C@@H](CCC(=O)O)C(=O)O)cc3)c2c(=O)[nH]1", "note": "[Pemetrexed]", "values": [
      {"measurement": "No. of Death", "value": "1/6"},
      {"measurement": "No. of Death", "setting": "listed as pemetrexed", "value": "one death case out of six animals"}
    ]}
  ]
}
